We go through six compounds from patent US5760034A, “Heterocyclic substituted naphthyridinones and methods and compositions employing them” (Schering Corporation, priority 1992, dated 1998).

In general, inhibition refers to the relative decrease from the control value, in per cent.

One assay deals with SRS-A release. In words: inhibition of leukotriene (SRS-A) release in vitro, lung fragments of sensitized guinea pigs challenged with ovalbumin. The format is cell-based. Conditions: 12 min preincubation, 20 μg/ml ovalbumin challenge 15 min; for inhibition at 10 µM: Cavia porcellus, guinea pig lung fragments. The protocol:
In one such test procedure, the anti-allergy method of this invention is identified by tests which measure a compound's inhibition of leukotriene release in sensitized guinea pigs. Male Hartley guinea pigs (250-300 g) are sensitized with 5 mg ovalbumin injected i.p. and 5 mg injected s.c. in 1 ml saline on day 1 and 5 mg ovalbumin injected i.p. on day 4. The sensitized animals are used 3-4 weeks later at which time they weigh 450-500 g. Sensitized guinea pigs are killed by a blow to the head and the lungs removed and cleaned of visible connective tissue, trachea and large blood vessels. The lungs from individual animals are sliced into fragments approximately 1 mm in thickness using a McIlwain tissue chopper and then washed with oxygenated Tyrode's buffer. Weighed aliquots (approximately 400 mg wet weight) of lung are transferred into vials containing 2 ml of fresh Tyrode's solution (containing 10 mM cysteine) and incubated in the presence or absence of test compound for 12 min at 37° C. The tissues are then challenged with 20 μg ovalbumin/ml (final concentration) and incubated for 15 min.
To measure leukotriene release, an aliquot of supernatant fluid is extracted with 4 volumes of 100% ethanol. After removal of the precipitated protein, the leukotriene content is measured by a radioimmunoassay using [^3 H]LTC4 and antiserum obtained from New England Nuclear. […] Percent inhibition of lekotriene release is calculated by comparing for each lung the release in the presence of the test compound to that in the absence of test compound.

The next assay deals with sensitized guinea pigs. In words: suppression of anaphylactic bronchospasm in ovalbumin-sensitized guinea pigs. It counts as in vivo, guinea pig. Conditions: 5 mg/kg, orally 2 hours before ovalbumin challenge; peak increase in intratracheal pressure within 15 minutes vs vehicle. The procedure: Male Hartley guinea pigs (250-300 g) are sensitized with 5 mg ovalbumin injected i.p. and 5 mg injected s.c. in 1 ml saline on day 1 and 5 mg ovalbumin injected i.p. on day 4. The sensitized animals are used 3-4 weeks later at which time they weigh 450-500 g. The sensitized guinea pigs are fasted overnight and the following morning are anesthetized with 0.9 ml/kg i.p. of dialurethane (0.1 g/ml diallylbarbituric acid, 0.4 g/ml ethylurea and 0.4 g/ml urethane). The trachea are cannulated and the animals are ventilated by a Harvard® rodent respirator at 50 strokes/minute with a stroke volume of 5 ml. A side arm to the tracheal cannula is connected to a pressure transducer (Harvard) to obtain a continuous measure of intratracheal pressure which is recorded on a polygraph (Harvard). The jugular vein is cannulated for the i.v. administration of substances. The sensitized guinea pigs are injected i.v. with 1 mg/kg propranolol, 5 mg/kg indomethacin and 2 mg/kg mepyramine given together in a volume of 1 ml/kg. […] Bronchoconstriction is measured as the peak increase in intratracheal pressure occurring within 15 minutes after antigen challenge.
Test compounds are administered orally 2 hours before challenge with ovalbumin. Suppression of anaphylactic bronchospasm is expressed as a percent inhibition of the peak increase in intratracheal pressure by comparison to a vehicle-treated control group.

For `O=c1c(N2CCCC2)cc2cccnc2n1-c1cccc(C(F)(F)F)c1` [3-(1-pyrrolidinyl)-1-(3-trifluoromethylphenyl)-1,8-naphthyridin-2(1H)-one], the inhibition at 10 µM in the assay on SRS-A release stood at 46%. In the case of “3-[3-(Hexahydro-1H-azepin-1-yl)-1,2-dihydro-2-oxo-1,8-naphthyridin-1-yl]-benzo-nitrile”, in the assay on SRS-A release, the “Inhibition of SRS-A release in vitro - Guinea Pig Lung 10 μM” value worked out at 46%. Take `O=c1c(N2CCCC2)cc2cccnc2n1-c1ccccc1` [3-(1-pyrrolidinyl)-1-phenyl-1,8-naphthyridin-2(1H)-one]: in the assay on SRS-A release, the inhibition at 10 µM worked out at 34%. Moreover, the “Inhibition of anaphylactic bronchospasm, % Inhibition” value with sensitized guinea pigs is reported as 61%. As for `O=c1c(N2CCOCC2)cc2cccnc2n1-c1ccccc1` [3-(4-Morpholinyl)-1-phenyl-1,8-naphthyridin-2(1H )-one], in the assay on SRS-A release, the inhibition at 10 µM is 65%. Further, the “Inhibition of anaphylactic bronchospasm, % Inhibition” value in the assay with sensitized guinea pigs was 93%. For the compound “3-[1,2-Dihydro-3-(4-morpholinyl)-2-oxo-1,8-naphthyridin-1-yl]benzonitrile”, in the assay on SRS-A release, the “Inhibition of SRS-A release in vitro - Guinea Pig Lung 10 μM” value is on record as 66%. As to `N#Cc1cccc(-n2c(=O)c(N3CCCC3)cc3cccnc32)c1` [3-(1-Pyrrolidinyl)-1-(3-cyanophenyl)-1,8-naphthyridin-2-(1H )-one], in the assay on SRS-A release, the inhibition at 10 µM worked out at 43%.
